Measurements published in paper PMC3857224, “Inhibition of DNA Glycosylases via Small Molecule Purine Analogs” (PLoS ONE, 2013).

Columns and labels:
[1] = test system: wild-type MEFs; test: cell survival assay (CellTiter Glo), wild-type MEFs; type: cell-based, mouse; settings: WT MEFs, 72 h exposure
Method: (§1) Wild-type or Neil1-KO MEFs were plated in a 96-well opaque walled dish (2000 cells/well) and incubated for 18 h to allow for attachment. Inhibitor (80 µL) diluted in DMEM was added to the cells at various concentrations ranging from 0–20 µM, and incubated for an additional 72 h. Cell viability was measured using the CellTiter Glo reagent (Promega, Madison, WI) and was prepared as per the manufacturer's instructions, with 50 µL of the reconstituted reagent added to each well. Cells were incubated for 10 min on an orbital shaker to induce cell lysis. Survival was measured by luminescence on a microplate reader (TECAN) and normalized to no-treatment control.
(§2) To experimentally address this question, mouse embryo fibroblasts from wild-type and Neil1 knockout mice were treated with increasing concentrations of P2, P6, P7, and P8. Cell survival was measured after a 72 h exposure. For all four compounds, the 37% survival was greater in the Neil1 knockout cells relative to the wild-type. The D37 ratios for WT: Neil1 were as follows: P2: 6∶10 µM; P6: 5∶8 µM; P7: 12∶15 µM; and P8: 7∶11 µM, respectively. […] In addition to modulating BER, there are potentially many other candidate enzymes that may be compromised by the introduction of these compounds, including but not limited to kinases, DNA and RNA polymerases, other DNA repair complexes or helicases. However, given that the concentrations of these compounds are several orders of magnitude higher than what would be considered as a pharmacologically-relevant dose, detailed mechanistic analyses of the current set of compounds is highly premature. Such studies and the development of appropriate cell culture and animal models will need to be generated concomitantly with the evolution of higher affinity, greater specificity molecules.

[2] = biological target: T1, NEIL1 (Homo sapiens, UniProt Q96FI4); test: gel-based incision assay of oligodeoxynucleotides containing site-specific base lesions; type: biochemical; settings: polyacrylamide gel, reaction quenched at 20 min
T1 construct: made in house
Method: The 384-well fluorogenic assay was carried out in a 20 µL reaction mixture in 20 mM Tris-HCl pH 8.0, 100 mM KCl, and 0.1% BSA, with 5 nM active enzyme and 50 nM substrate. Possible inhibitors were incubated with the enzyme for at least 5 min at room temperature in a black, low-volume 384-well plate before addition of an equal volume of substrate to start the reaction. The plates were spun for 30 s at 1000 rcf to remove bubbles. The reactions were incubated at 37°C and fluorescence data collected on an Infinite M200 (Tecan, Mannedorf, Switzerland) equipped with standard optics (excitation filter 525 nm, and emission filter 598 nm). For the gel-based assay, reactions were initiated as described for the fluorogenic assay, but quenched with 20 µL 95% formamide at 20 min. The products were separated by electrophoresis through a 15% polyacrylamide gel containing 8 M urea and visualized by a Typhoon scanner (GE Life Sciences, Piscataway, NJ). The fraction of cleaved product was measured using ImageQuant software and analyzed using GraphPad Prism 6. […]

[3] = test system: Neil1-KO MEFs; test: cell survival assay (CellTiter Glo), Neil1-KO MEFs; type: cell-based, mouse; settings: Neil1 knockout MEFs, 72 h exposure
Method: as §1, §2

[4] = test system: NEIL1, NTH1, OGG1 and FPG; test: glycosylase/AP lyase cleavage assays with common substrates (Tg, 8-oxo-Gua) across glycosylases; type: biochemical, human; Escherichia coli (FPG); settings: all enzymes except for NTH1
Method: The 384-well fluorogenic assay was carried out in a 20 µL reaction mixture in 20 mM Tris-HCl pH 8.0, 100 mM KCl, and 0.1% BSA, with 5 nM active enzyme and 50 nM substrate. Possible inhibitors were incubated with the enzyme for at least 5 min at room temperature in a black, low-volume 384-well plate before addition of an equal volume of substrate to start the reaction. The plates were spun for 30 s at 1000 rcf to remove bubbles. The reactions were incubated at 37°C and fluorescence data collected on an Infinite M200 (Tecan, Mannedorf, Switzerland) equipped with standard optics (excitation filter 525 nm, and emission filter 598 nm). For the gel-based assay, reactions were initiated as described for the fluorogenic assay, but quenched with 20 µL 95% formamide at 20 min. The products were separated by electrophoresis through a 15% polyacrylamide gel containing 8 M urea and visualized by a Typhoon scanner (GE Life Sciences, Piscataway, NJ). The fraction of cleaved product was measured using ImageQuant software and analyzed using GraphPad Prism 6.
In humans, several glycosylases, including OGG1, NTH1, NEIL2, and NEIL3 may participate in the removal of a wide variety of oxidized bases. […] To address this question, assays were designed to measure inhibition of OGG1 and NTH1, as well as the Escherichia coli glycosylase-AP lyase, FPG. […]

T1 sequence (Q96FI4 whole entry): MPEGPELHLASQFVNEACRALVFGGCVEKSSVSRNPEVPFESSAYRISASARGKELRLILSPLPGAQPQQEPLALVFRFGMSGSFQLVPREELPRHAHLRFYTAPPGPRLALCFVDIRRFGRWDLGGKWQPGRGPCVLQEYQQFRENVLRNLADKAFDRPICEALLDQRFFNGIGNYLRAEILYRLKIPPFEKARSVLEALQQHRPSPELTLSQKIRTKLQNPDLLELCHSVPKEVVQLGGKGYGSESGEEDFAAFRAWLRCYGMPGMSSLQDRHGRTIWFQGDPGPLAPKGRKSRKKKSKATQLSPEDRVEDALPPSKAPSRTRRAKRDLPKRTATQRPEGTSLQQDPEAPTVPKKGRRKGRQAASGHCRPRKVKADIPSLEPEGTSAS

SMILES | D37 (37% survival) [1] [µM] | IC50 [2] [µM] | D37 (37% survival) [3] [µM] | relative inhibition among the compounds [4]
Cc1cc(/C=C/C#N)cc(C)c1Nc1nc(Nc2ccc3c(c2)OCO3)c2nc[nH]c2n1 [Purine P8] | 7 | 15.2 | 11 | poorest inhibition
Cc1cc(/C=C/C#N)cc(C)c1Nc1nc(Nc2ccc3scnc3c2)c2nc[nH]c2n1 [Purine P2] | 6 | 28 | 10 | –
Cc1nc2ccc(Nc3nc(Nc4c(C)cc(/C=C/C#N)cc4C)nc4[nH]cnc34)cc2s1 [Purine P6] | 5 | 9.2 | 8 | –
Cc1cc(/C=C/C#N)cc(C)c1Nc1nc(Nc2ccc3c(c2)CCC3)c2nc[nH]c2n1 [Purine P7] | 12 | 11.7 | 15 | –
